The text below walks through data of ChEMBL document CHEMBL1132326, “Synthesis and dopamine receptor modulating activity of substituted bicyclic thiazolidine lactam peptidomimetics of L-prolyl-L-leucyl-glycinamide” (1999).

For assay [1], the system named is Rattus norvegicus. Nature of the assay: Effect on rotational behavior in rat after i.p. administration of 1 ug/kg. It is filed as functional.
For assay [2], the system named is Rattus norvegicus. Put plainly: Effect on rotational behavior in rat after i.p. administration of 0.1 ug/kg. It is filed as functional.

In the assay on Rattus norvegicus [1], `NC(=O)[C@H]1CS[C@@H]2C[C@@](Cc3ccccc3)(NC(=O)[C@@H]3CCCN3)C(=O)N12` came in with an Increase of 30%. Still for that read-out and setting: with `CC(C)C[C@@]1(NC(=O)[C@@H]2CCCN2)C[C@H]2SC[C@H](C(N)=O)N2C1=O` the figure was 44%. The compound `NC(=O)[C@H]1CS[C@@H]2C[C@@H](NC(=O)[C@@H]3CCCN3)C(=O)N12` returned an Increase in the assay with Rattus norvegicus [2] of 23%. Turning to `CCCC[C@@]1(NC(=O)[C@@H]2CCCN2)C[C@H]2SC[C@H](C(N)=O)N2C1=O`, in the assay on Rattus norvegicus [2], the Increase was 56%.
